Results reported in the NIST ThermoML archive (doi:10.1016/j.jct.2018.08.035).
Where “and” joins values, the source holds several entries; their conditions need not be identical. Identical values can stand only once.

Assay: xn = mol fraction of the nth substance listed
Details: 100 kPa, Liquid, Vibrating tube method

CCC(O)CC [3-pentanol] + C[N+](=O)[O-]
mass density
Details	294.15 K	295.15 K	295.16 K	296.15 K	296.16 K	297.15 K	297.16 K	298.15 K
x1 = 0.246	–	1001.66 kg/m3	–	–	1000.44 kg/m3	999.224 kg/m3	–	998.021 kg/m3
x1 = 0.266	–	993.153 kg/m3	–	–	991.939 kg/m3	990.728 kg/m3	–	989.517 kg/m3
x1 = 0.275	–	989.651 kg/m3	–	988.439 kg/m3	–	–	987.23 kg/m3	986.032 kg/m3
x1 = 0.3	–	980.26 kg/m3	–	–	979.058 kg/m3	977.857 kg/m3	–	976.66 kg/m3
x1 = 0.325	–	970.983 kg/m3	–	–	969.786 kg/m3	968.596 kg/m3	–	967.413 kg/m3
x1 = 0.338	–	966.179 kg/m3	–	964.988 kg/m3	–	963.801 kg/m3	–	962.62 kg/m3
x1 = 0.363	958.817 kg/m3	957.627 kg/m3	–	–	956.447 kg/m3	955.27 kg/m3	–	954.105 kg/m3
x1 = 0.382	952.329 kg/m3	951.15 kg/m3	–	949.976 kg/m3	–	948.809 kg/m3	–	947.647 kg/m3
x1 = 0.407	944.215 kg/m3	943.045 kg/m3	–	–	941.881 kg/m3	940.724 kg/m3	–	939.572 kg/m3
x1 = 0.414	941.945 kg/m3	940.778 kg/m3	–	939.619 kg/m3	–	938.464 kg/m3	–	937.32 kg/m3 and 937.319 kg/m3
x1 = 0.486	920.751 kg/m3	919.625 kg/m3	–	–	918.503 kg/m3	917.385 kg/m3	–	916.279 kg/m3
x1 = 0.488	920.031 kg/m3	918.905 kg/m3	–	–	917.785 kg/m3	916.67 kg/m3	–	915.564 kg/m3
x1 = 0.546	904.649 kg/m3	903.56 kg/m3	–	–	902.476 kg/m3	–	901.393 kg/m3	900.318 kg/m3
x1 = 0.573	897.886 kg/m3	–	896.815 kg/m3	–	895.746 kg/m3	894.678 kg/m3	–	893.615 kg/m3
x1 = 0.587	894.274 kg/m3	893.213 kg/m3	–	–	892.153 kg/m3	–	891.096 kg/m3	890.042 kg/m3
x1 = 0.615	887.502 kg/m3	886.458 kg/m3	–	885.416 kg/m3	–	884.375 kg/m3	–	883.332 kg/m3
x1 = 0.629	884.073 kg/m3	883.039 kg/m3	–	–	882.004 kg/m3	880.972 kg/m3	–	879.94 kg/m3
